From publication PMC11714206, “Massively Parallel Screening of Toll/Interleukin‐1 Receptor (TIR)‐Derived Peptides Reveals Multiple Toll‐Like Receptors (TLRs)‐Targeting Immunomodulatory Peptides” (Advanced Science, 2024)

Molecular target: T1, MyD88^TIR (Homo sapiens, UniProt Q99836)
T1 construct: MyD88 (residues 148–296); 6xHis; made in house; host or cells: E. coli BL21 (DE3)
Assay: T‐Surf phage library (P8 and P3) selection against MyD88^TIR, four rounds, NGS read counts
Assay type: binding
Conditions: for Population: 4th round of selection against MyD88 TIR, share of NGS reads; for P8_MyD88 Rank (after) / P8_MyD88 Rank (before): P8 library; for P3_MyD88 Rank (after) / P3_MyD88 Rank (before): P3 library
Description: T‐Surf libraries were screened against the immobilized TIR domains of two major human TLR adaptor proteins, MAL^TIR and MyD88^TIR, allowing cross‐species selection of TIR‐binding motifs with 190 946 TIR‐derived peptides in a single binding assay (Scheme 1). Enriched phage pools from the fourth round of selection were analyzed using NGS after barcoding the peptide‐coding regions of the phage pools.
Phage display screening was performed by coating two wells of a 96‐well plate (Maxisorp, Thermo Fisher Scientific) with 100 µL of 5 µg mL^−1 TIR domains overnight; then, the coated wells were blocked with 200 µL of blocking buffer (0.2% BSA in PBS) and set aside for 1 h at 4 °C with gentle shaking. Next, 100 µL of the phage library was added to the wells and incubated for 1 h at room temperature (RT; 20 – 22 °C) with gentle shaking. The plate was washed four times with PBS containing 0.5% Tween‐20; the bound phages were eluted by adding 100 µL of 100 mM HCl to each well. The elute was neutralized with 10 µL of 1.0 M Tris‐HCl (pH 11.0). E. coli TG1 cells were grown to the log phase (A600 = ≈0.6), and 1 mL of the culture was incubated with 100 µL of the eluted phages for 30 min at 37 °C, with shaking at 200 rpm. Next, 1 µL of M13KO7 helper phages was added, followed by incubation for 45 min at 37 °C, with shaking. Subsequently, the cells were transferred to 25 mL of 2× yeast extract tryptone/carbenicillin/kanamycin medium and incubated overnight at 37 °C with shaking at 200 rpm. The amplified phages were precipitated with 20% PEG‐8000/2.5 M NaCl to be used for the next round of selection.
The naïve T‐Surf libraries in P8 and P3 and the enriched phage pools after four rounds were barcoded for NGS as previously described.^[ [59] ^] Briefly, 5 µL of the phage pool was used as a template for 20 cycles of a 50 µL PCR reaction using […] each of forward and reverse barcoded primers and PrimeSTAR Max DNA Polymerase. The PCR products were purified using Expin Gel SV (GeneAll). The NGS samples were quantified using qPCR, following the qPCR Quantification Protocol Guide (KAPA Library Quantification kits for Illumina Sequencing Platform), and qualified using the TapeStation High Sensitivity D1000 ScreenTape (Agilent Technologies). The indexed libraries were further sequenced by Macrogen (Seoul, Republic of Korea) using the NovaSeq platform (Illumina) with 100 bp paired‐end reads. The reads were demultiplexed by barcodes and filtered for an average Phred quality score of at least 30, followed by trimming the flanking consensus sequences using Cutadapt (version 2.3). Peptide sequence populations were analyzed according to the read counts.

[1] = P8_MyD88: rank by count after grouping
[2] = P8_MyD88: rank by count before grouping
[3] = P8_MyD88 pool: P8 T-Surf phage library
[4] = P3_MyD88: rank by count after grouping
[5] = P3_MyD88: rank by count before grouping
[6] = 4R selection against MyD88, rank after grouping
[7] = 4R selection against MyD88, rank before grouping
[8] = selection against MyD88, rank by count after grouping
[9] = selection against MyD88, rank by count before grouping
[10] = selection against MyD88, rank after grouping
[11] = selection against MyD88, rank before grouping
[12] = P8_MyD88: rank by NGS read count after grouping
[13] = P8_MyD88: rank by NGS read count before grouping
[14] = selection against MyD88 TIR, rank by count after grouping
[15] = selection against MyD88 TIR, rank by count before grouping
[16] = P3_MyD88 pool: P3 T-Surf phage library

T1 sequence (Q99836 148-296): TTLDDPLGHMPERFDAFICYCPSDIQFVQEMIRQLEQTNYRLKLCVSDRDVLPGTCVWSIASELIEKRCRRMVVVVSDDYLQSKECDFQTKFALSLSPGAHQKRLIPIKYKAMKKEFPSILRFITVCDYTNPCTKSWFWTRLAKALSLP

WALQELVKILQAKIFL
Rank (after) [1]: 109 | Rank (before) [2]: 115 | Population [3]: 0.02%

LSRVPSVHDFRGLMSI
Rank (after) [4]: 416 | Rank (before) [5]: 2389

VANILGYHCKGWENFV
P8_MyD88 Rank (after) [6]: 674 | P8_MyD88 Rank (before) [7]: 2170

DPQDLDRFYERLLSLL
Rank (after) [1]: 428 | Rank (before) [2]: 2840

WVFASNLETFWARLYY
P8_MyD88 Rank (after) [6]: 599 | P8_MyD88 Rank (before) [7]: 1388

SELRVVDDGRVSPMAM
Rank (after) [4]: 464 | Rank (before) [5]: 3019

IDDDHLTYLVRLLQIA
P8_MyD88 Rank (after) [8]: 761 | P8_MyD88 Rank (before) [9]: 3637

EDTLIRLLVQRIMKEL
Rank (after) [1]: 173 | Rank (before) [2]: 198

DPQDLDWFYERLVILF
Population [3]: 0.0131%

DHHLDLPRGKRLNRKFW
Rank (after) [4]: 153 | Rank (before) [5]: 944

YAFTGHLCRCLVLRGA
P3_MyD88 Rank (after) [10]: 506 | P3_MyD88 Rank (before) [11]: 1489

LGYHWIDWEYFVGIK
Rank (after) [12]: 874 | Rank (before) [13]: 3264

DWVWDYLLPIWKAQR
P8_MyD88 Rank (after) [8]: 704 | P8_MyD88 Rank (before) [9]: 2449

WALDELLQILHPRELV
Rank (after) [12]: 981 | Rank (before) [13]: 1460

SSFRKGVWRVRKLSKK
P3_MyD88 Rank (after) [8]: 717 | P3_MyD88 Rank (before) [9]: 3230

DPQEQLSFCERLITVF
P8_MyD88 Rank (after) [8]: 743 | P8_MyD88 Rank (before) [9]: 2995

NSSWALEELVKIMEAM
Rank (after) [1]: 186 | Rank (before) [2]: 239

VRHTFAGYLYDALNRL
Rank (after) [1]: 141 | Rank (before) [2]: 155 | Population [3]: 0.01%

AVDKETDKIQTAEKC
P3_MyD88 Rank (after) [14]: 242 | P3_MyD88 Rank (before) [15]: 924

DPLVMVWLYVRPVSLF
P8_MyD88 Rank (after) [10]: 556 | P8_MyD88 Rank (before) [11]: 2609

YTALPNSGFHTFRDNN
P3_MyD88 Rank (after) [14]: 257 | P3_MyD88 Rank (before) [15]: 1636

VANILGCHWIDWECFV
Rank (after) [1]: 464 | Rank (before) [2]: 2165

WALDELLRILY
Population [3]: 0.01%

DPQDLDWFYERLLS
Rank (after) [1]: 471 | Rank (before) [2]: 2786

KELVHVWSSKANSRVG
P3_MyD88 Rank (after) [6]: 651 | P3_MyD88 Rank (before) [7]: 3662

DQHLDLPRGKAIKPELLG
Rank (after) [4]: 475 | Rank (before) [5]: 2066

NQWRNALTAAASLSGW
Population [16]: 0.00291%

DPQELECLYERLFSQM
P8_MyD88 Rank (after) [6]: 667 | P8_MyD88 Rank (before) [7]: 2991

DHHLDLPRGKPIKREILG
P3_MyD88 Rank (after) [14]: 244 | P3_MyD88 Rank (before) [15]: 2040

YYLEPIYLRKQSGDFG
P3_MyD88 Rank (after) [14]: 283 | P3_MyD88 Rank (before) [15]: 1475

YAFTGHLHRYLVQRL
Rank (after) [4]: 134 | Rank (before) [5]: 834

KNLFNELVSKNIRTL
Rank (after) [4]: 103 | Rank (before) [5]: 542

DHHLDLPRGKALKPEMLG
P3_MyD88 Rank (after) [14]: 200 | P3_MyD88 Rank (before) [15]: 2046

YLLLSVFQTIFARRTD
Population [3]: 0.00771%

YAFTGHLHRYLVQRGV
Population [16]: 0.00378%

WALDELLKILYARELF
P8_MyD88 Rank (after) [14]: 222 | P8_MyD88 Rank (before) [15]: 518

SSWWALEELAHIIE
P8_MyD88 Rank (after) [6]: 634 | P8_MyD88 Rank (before) [7]: 3803

DPQDLEWFYERLVSLIP
Rank (after) [1]: 453 | Rank (before) [2]: 2884

DPQDLDWFYERLASGI
Rank (after) [12]: 882 | Rank (before) [13]: 2782

IDDDHLTYLVRLLYSL
P8_MyD88 Rank (after) [6]: 607 | P8_MyD88 Rank (before) [7]: 3631

DPQDLDWFYERLVNLL
Rank (after) [1]: 98 | Rank (before) [2]: 349

DPLALEWYYERPFSQM
P8_MyD88 Rank (after) [10]: 559 | P8_MyD88 Rank (before) [11]: 2612

AYILNFIKGNVMFEFL
Rank (after) [1]: 129 | Rank (before) [2]: 140 | Population [3]: 0.0116%

DWGWGYLLPNLEGPAG
P8_MyD88 Rank (after) [8]: 707 | P8_MyD88 Rank (before) [9]: 2481

GFLYQALARDGFKIFM
Rank (after) [4]: 426 | Rank (before) [5]: 1811

LVAHRMSKKMKNVATI
P3_MyD88 Rank (after) [10]: 513 | P3_MyD88 Rank (before) [11]: 2316

YASSSWYLDALVQILHARELF
Rank (after) [1]: 388 | Rank (before) [2]: 1856

LGYRLMFWDYFVGIVD
P8_MyD88 Rank (after) [10]: 548 | P8_MyD88 Rank (before) [11]: 3225

YLKWGYVVLGSSAFC
P3_MyD88 Rank (after) [8]: 714 | P3_MyD88 Rank (before) [9]: 1574

YTALTNSGFHTFLDNY
Rank (after) [4]: 119 | Rank (before) [5]: 1665

WDFASSTWWLRELLQIA
P8_MyD88 Rank (after) [14]: 272 | P8_MyD88 Rank (before) [15]: 524

NFANSSWALDELWLIL
Rank (after) [1]: 132 | Rank (before) [2]: 145 | Population [3]: 0.0116%

NELVHVWSSKANIRVC
P3_MyD88 Rank (after) [8]: 718 | P3_MyD88 Rank (before) [9]: 3399

WALDELLKILDAKETM
Population [3]: 0.0116%

QGGDEITPSLFKAFKD
P3_MyD88 Rank (after) [14]: 265 | P3_MyD88 Rank (before) [15]: 1150

SSLLEGRWALLELSKK
Rank (after) [4]: 459 | Rank (before) [5]: 3253

DPQDLDWLYERLVSLF
Population [3]: 0.00617%

DPQELEGVYERLVSLF
Rank (after) [1]: 405 | Rank (before) [2]: 2994

DHHLDLPRGKALTPEILG
P3_MyD88 Rank (after) [6]: 657 | P3_MyD88 Rank (before) [7]: 2012

SSFRGGLWRLLELRKE
P3_MyD88 Rank (after) [10]: 528 | P3_MyD88 Rank (before) [11]: 3131

YYDSRWALDELWLILEQR
P8_MyD88 Rank (after) [8]: 749 | P8_MyD88 Rank (before) [9]: 1673

DWVLGYRLPNLEGPAG
P8_MyD88 Rank (after) [8]: 741 | P8_MyD88 Rank (before) [9]: 2395

LGYISIVRGYFVGIER
P8_MyD88 Rank (after) [10]: 486 | P8_MyD88 Rank (before) [11]: 3337

DRVWDYLLPNLEGQAG
P8_MyD88 Rank (after) [10]: 545 | P8_MyD88 Rank (before) [11]: 3073
